According to patent US20260365670A1, “EGFR INHIBITORS AND USES THEREOF” (DIZAL (JIANGSU) PHARMACEUTICAL CO., LTD., priority 2022, published 2026):
Where two headings read alike, the source gives them in different places.

Columns and labels:
EGFR wild type = biological target: T1, EGFR wild type (Homo sapiens, UniProt P00533); experiment: Inhibition of EGFR wild type biochemical enzymatic activity (HTRF); conditions: EGFR WT, 1 mM ATP, 1 h, room temperature, read-out: IC50 (nM) @WT
T1 construct: purchased Carna Bio
How it was run: (§1)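 For IC50 determination by four-parameter logistic fit, EDTA-quenched 1 h room-temperature reactions (1 mM ATP, 1 μM TK Substrate-biotin) were read by HTRF. The 665/615 nm emission ratio after 320 nm excitation served as the activity signal.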

PC-9 = experiment: Cell proliferation assay, PC-9 cells (CellTiter-Glo, 72 hours); assay type: cell-based; conditions: PC9 cells, CellTiter-Glo, read-out: PC9 GI50
How it was run: (§2)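 Ba/F3 cells carrying EGFR mutants (5000/well) or PC-9 cells (500/well) in RPMI1640 were dosed with compound series after overnight attachment and grown 72 h. Viability read by CellTiter-Glo, with day-0 counts subtracted; GI50 from curve fits of % proliferation versus DMSO control.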

EGFR L858R/T790M = biological target: T2, EGFR L858R/T790M (Homo sapiens, UniProt P00533, L858R/T790M); experiment: Inhibition of EGFR L858R/T790M biochemical enzymatic activity (HTRF); conditions: EGFR L858R-T790M, 1 mM ATP, 1 h, room temperature, read-out: IC50 (nM) @L858R-T790M
T2 construct: purchased Carna Bio
How it was run: as §1

[1] = tested on: Ba/F3 cells expressing EGFR mutations; experiment: Cell proliferation assay, Ba/F3 cells expressing EGFR mutations (CellTiter-Glo, 72 hours); assay type: cell-based; conditions: CellTiter-Glo
How it was run: as §2

[2] = biological target: T3, EGFR[T790M/C797S/d746-750] (Homo sapiens, UniProt P00533, C797S/DEL746-750/T790M); experiment: Inhibition of EGFR[T790M/C797S/d746-750] biochemical enzymatic activity (HTRF); conditions: EGFR T790M-C797S-Del19, 1 mM ATP, 1 h, room temperature, read-out: IC50 (nM) @T790M - C797S - Del19
T3 construct: purchased Carna Bio
How it was run: as §1

EGFR (d746-750 C797S) = biological target: T4, EGFR (d746-750 C797S) (Homo sapiens, UniProt P00533, C797S/DEL746-750); experiment: Inhibition of EGFR (d746-750 C797S) biochemical enzymatic activity (HTRF); conditions: EGFR Del19-C797S, 1 mM ATP, 1 h, room temperature, read-out: IC50 (nM) @Del19-C797S
T4 construct: purchased signalchem
How it was run: as §1

A-431 = experiment: Cell proliferation GI50, A-431 cells (Table 6); assay type: cell-based; conditions: Homo sapiens, A-431, A-431 cells
EGFR[T790M/C797S/L858R] = biological target: T5, EGFR[T790M/C797S/L858R] (Homo sapiens, UniProt P00533, C797S/L858R/T790M); experiment: Inhibition of EGFR[T790M/C797S/L858R] biochemical enzymatic activity (HTRF); conditions: EGFR T790M-C797S-L858R, 1 mM ATP, 1 h, room temperature, read-out: IC50 (nM) @T790M- C797S - L858R
T5 construct: purchased Carna Bio
How it was run: as §1

EGFR L858R = biological target: T6, EGFR L858R (Homo sapiens, UniProt P00533, L858R); experiment: Inhibition of EGFR L858R biochemical enzymatic activity (HTRF); conditions: 1 mM ATP, 1 h, room temperature, read-out: IC50 (nM) @L858R
T6 construct: purchased Carna Bio
How it was run: as §1

EGFR Exon19Del = biological target: T7, EGFR Exon19Del (Homo sapiens, UniProt P00533, DEL746-750); experiment: Inhibition of EGFR Exon19Del biochemical enzymatic activity (HTRF); conditions: EGFR Del19, 1 mM ATP, 1 h, room temperature, read-out: IC50 @Del19
T7 construct: purchased Carna Bio
How it was run: as §1

EGFR (C797S L858R) = biological target: T8, EGFR (C797S L858R) (Homo sapiens, UniProt P00533, C797S/L858R); experiment: Inhibition of EGFR (C797S L858R) biochemical enzymatic activity (HTRF); conditions: EGFR L858-C797S, 1 mM ATP, 1 h, room temperature, read-out: IC50 (nM) @L858-C797S
T8 construct: purchased signalchem
How it was run: as §1

EGFR Exon19Del/T790M = biological target: T9, EGFR Exon19Del/T790M (Homo sapiens, UniProt P00533, DEL746-750/T790M); experiment: Inhibition of EGFR Exon19Del/T790M biochemical enzymatic activity (HTRF); conditions: EGFR Del19-T790M, 1 mM ATP, 1 h, room temperature, read-out: IC50 (nM) @Del19-T790M
T9 construct: purchased Carna Bio
How it was run: as §1

[3] = Mus musculus, BaF3, 72 h, BaF3 cells, EGFR DEL19-C797S, read-out: DEL19-C797S/BaF3 GI50
[4] = Mus musculus, BaF3, 72 h, BaF3 cells, EGFR DEL19-T790-C797S, read-out: DEL19-T790-C797S/BaF3 GI50
[5] = Mus musculus, BaF3, 72 h, BaF3 cells, EGFR L858R, read-out: L858R/BaF3 GI50
[6] = Mus musculus, BaF3, 72 h, BaF3 cells, EGFR L858R-C797S, read-out: L858R-C797S/BaF3 GI50
[7] = Mus musculus, BaF3, 72 h, BaF3 cells, EGFR L858R-T790-C797S, read-out: L858R-T790-C797S/BaF3 GI50
[8] = Mus musculus, BaF3, 72 h, BaF3 cells, EGFR L858R-T790M, read-out: L858R-T790M/BaF3 GI50
[9] = Mus musculus, BaF3, 72 h, EGFR DEL19-T790M, read-out: DEL19-T790M GI50
[10] = BaF3 cells, EGFR DEL19-C797S, read-out: DEL19-C797S/BaF3 GI50
[11] = BaF3 cells, EGFR DEL19-T790-C797S, read-out: DEL19-T790-C797S/BaF3 GI50
[12] = BaF3 cells, EGFR L858R, read-out: L858R/BaF3 GI50
[13] = BaF3 cells, EGFR L858R-C797S, read-out: L858R-C797S/BaF3 GI50
[14] = BaF3 cells, EGFR L858R-T790-C797S, read-out: L858R-T790-C797S/BaF3 GI50
[15] = BaF3 cells, EGFR L858R-T790M, read-out: L858R-T790M/BaF3 GI50
[16] = EGFR DEL19-T790M, read-out: DEL19-T790M GI50

T9 sequence (P00533 with tags, fused parts or gaps DEL746-750/T790M limits assumed): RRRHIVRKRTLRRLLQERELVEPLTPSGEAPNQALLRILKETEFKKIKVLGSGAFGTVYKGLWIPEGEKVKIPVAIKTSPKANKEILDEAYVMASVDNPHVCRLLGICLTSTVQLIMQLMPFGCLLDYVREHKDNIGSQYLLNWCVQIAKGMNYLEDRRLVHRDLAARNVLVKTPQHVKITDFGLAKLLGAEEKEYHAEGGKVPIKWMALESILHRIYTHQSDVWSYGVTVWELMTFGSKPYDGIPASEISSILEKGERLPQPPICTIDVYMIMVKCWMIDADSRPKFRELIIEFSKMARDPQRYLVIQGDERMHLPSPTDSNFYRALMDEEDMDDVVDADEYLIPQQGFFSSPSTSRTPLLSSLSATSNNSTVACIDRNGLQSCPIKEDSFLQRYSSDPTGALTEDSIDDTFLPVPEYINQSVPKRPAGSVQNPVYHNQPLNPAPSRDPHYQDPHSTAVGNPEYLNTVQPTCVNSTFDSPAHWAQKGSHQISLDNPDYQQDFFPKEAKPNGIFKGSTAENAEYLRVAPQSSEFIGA
T3 sequence (P00533 with tags, fused parts or gaps DEL746-750/T790M/C797S limits assumed): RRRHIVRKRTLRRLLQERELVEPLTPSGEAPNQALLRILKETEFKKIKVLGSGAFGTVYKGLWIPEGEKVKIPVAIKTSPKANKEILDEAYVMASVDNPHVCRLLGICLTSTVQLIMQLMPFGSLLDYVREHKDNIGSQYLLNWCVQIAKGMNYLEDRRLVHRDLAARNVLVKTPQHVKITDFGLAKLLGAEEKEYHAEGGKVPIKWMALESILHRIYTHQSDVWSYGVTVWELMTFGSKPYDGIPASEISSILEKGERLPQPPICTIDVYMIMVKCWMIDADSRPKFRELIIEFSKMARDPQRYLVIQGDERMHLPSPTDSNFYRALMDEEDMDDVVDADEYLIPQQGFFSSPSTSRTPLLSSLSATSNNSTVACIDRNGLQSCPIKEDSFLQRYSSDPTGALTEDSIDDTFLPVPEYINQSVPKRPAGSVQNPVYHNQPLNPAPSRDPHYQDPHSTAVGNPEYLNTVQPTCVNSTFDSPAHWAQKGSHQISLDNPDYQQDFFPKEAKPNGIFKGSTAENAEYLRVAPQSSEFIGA
T4 sequence (P00533 with tags, fused parts or gaps DEL746-750/C797S limits assumed): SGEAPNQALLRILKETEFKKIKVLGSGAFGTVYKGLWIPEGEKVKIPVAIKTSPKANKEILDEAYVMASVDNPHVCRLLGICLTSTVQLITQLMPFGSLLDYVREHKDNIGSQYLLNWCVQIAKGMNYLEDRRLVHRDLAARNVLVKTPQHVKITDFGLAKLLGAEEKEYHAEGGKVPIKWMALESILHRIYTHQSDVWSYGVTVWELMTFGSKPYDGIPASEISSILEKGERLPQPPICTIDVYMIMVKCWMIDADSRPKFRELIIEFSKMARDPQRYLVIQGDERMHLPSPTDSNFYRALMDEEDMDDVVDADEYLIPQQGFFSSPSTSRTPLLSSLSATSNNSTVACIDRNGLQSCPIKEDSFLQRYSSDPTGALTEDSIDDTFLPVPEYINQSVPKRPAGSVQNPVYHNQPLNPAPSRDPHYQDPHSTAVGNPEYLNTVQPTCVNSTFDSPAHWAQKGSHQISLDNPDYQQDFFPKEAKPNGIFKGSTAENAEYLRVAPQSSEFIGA
T7 sequence (P00533 with tags, fused parts or gaps DEL746-750 limits assumed): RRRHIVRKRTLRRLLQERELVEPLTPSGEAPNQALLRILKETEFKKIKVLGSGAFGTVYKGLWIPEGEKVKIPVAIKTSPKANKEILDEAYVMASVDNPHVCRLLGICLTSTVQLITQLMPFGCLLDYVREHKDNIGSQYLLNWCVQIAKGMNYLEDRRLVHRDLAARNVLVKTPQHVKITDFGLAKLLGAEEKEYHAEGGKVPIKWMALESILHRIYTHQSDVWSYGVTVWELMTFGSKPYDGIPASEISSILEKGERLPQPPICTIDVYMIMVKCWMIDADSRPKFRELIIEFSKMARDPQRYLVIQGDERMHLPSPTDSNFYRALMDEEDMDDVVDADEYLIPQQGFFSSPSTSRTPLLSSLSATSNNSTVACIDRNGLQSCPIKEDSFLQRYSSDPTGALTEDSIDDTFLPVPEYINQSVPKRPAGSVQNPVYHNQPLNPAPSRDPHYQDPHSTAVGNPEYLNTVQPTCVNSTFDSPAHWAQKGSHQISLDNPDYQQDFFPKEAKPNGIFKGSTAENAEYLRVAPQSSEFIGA
T1 sequence (P00533 25-1210): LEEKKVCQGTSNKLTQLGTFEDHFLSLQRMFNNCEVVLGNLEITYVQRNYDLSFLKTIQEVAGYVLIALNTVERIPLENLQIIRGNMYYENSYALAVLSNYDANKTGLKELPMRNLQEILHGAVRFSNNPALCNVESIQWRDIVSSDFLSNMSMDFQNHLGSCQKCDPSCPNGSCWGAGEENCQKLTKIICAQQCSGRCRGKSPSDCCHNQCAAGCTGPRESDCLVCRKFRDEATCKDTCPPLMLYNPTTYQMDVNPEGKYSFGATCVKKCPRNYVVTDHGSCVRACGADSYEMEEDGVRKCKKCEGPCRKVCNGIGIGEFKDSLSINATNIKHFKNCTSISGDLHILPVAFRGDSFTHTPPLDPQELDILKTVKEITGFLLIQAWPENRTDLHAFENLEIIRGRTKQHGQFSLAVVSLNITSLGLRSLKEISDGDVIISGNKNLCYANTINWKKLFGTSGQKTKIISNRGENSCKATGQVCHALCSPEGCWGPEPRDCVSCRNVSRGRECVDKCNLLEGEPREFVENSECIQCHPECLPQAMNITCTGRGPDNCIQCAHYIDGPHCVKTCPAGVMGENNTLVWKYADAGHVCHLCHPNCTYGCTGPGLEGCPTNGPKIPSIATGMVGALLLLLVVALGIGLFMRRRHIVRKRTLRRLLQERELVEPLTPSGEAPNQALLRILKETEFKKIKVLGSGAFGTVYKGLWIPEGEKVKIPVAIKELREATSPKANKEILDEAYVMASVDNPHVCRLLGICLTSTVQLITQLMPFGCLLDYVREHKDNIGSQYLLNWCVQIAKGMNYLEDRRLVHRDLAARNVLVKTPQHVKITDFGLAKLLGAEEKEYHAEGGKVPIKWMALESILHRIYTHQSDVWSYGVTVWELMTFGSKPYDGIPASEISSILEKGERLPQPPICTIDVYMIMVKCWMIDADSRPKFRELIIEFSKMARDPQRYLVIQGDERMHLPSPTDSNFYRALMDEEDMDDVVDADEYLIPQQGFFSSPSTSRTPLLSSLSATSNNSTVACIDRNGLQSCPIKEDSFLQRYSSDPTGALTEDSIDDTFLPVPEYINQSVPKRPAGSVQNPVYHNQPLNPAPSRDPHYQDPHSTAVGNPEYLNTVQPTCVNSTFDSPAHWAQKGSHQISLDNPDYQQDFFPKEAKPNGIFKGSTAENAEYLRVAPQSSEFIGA
T6 sequence (P00533 25-1210 L858R): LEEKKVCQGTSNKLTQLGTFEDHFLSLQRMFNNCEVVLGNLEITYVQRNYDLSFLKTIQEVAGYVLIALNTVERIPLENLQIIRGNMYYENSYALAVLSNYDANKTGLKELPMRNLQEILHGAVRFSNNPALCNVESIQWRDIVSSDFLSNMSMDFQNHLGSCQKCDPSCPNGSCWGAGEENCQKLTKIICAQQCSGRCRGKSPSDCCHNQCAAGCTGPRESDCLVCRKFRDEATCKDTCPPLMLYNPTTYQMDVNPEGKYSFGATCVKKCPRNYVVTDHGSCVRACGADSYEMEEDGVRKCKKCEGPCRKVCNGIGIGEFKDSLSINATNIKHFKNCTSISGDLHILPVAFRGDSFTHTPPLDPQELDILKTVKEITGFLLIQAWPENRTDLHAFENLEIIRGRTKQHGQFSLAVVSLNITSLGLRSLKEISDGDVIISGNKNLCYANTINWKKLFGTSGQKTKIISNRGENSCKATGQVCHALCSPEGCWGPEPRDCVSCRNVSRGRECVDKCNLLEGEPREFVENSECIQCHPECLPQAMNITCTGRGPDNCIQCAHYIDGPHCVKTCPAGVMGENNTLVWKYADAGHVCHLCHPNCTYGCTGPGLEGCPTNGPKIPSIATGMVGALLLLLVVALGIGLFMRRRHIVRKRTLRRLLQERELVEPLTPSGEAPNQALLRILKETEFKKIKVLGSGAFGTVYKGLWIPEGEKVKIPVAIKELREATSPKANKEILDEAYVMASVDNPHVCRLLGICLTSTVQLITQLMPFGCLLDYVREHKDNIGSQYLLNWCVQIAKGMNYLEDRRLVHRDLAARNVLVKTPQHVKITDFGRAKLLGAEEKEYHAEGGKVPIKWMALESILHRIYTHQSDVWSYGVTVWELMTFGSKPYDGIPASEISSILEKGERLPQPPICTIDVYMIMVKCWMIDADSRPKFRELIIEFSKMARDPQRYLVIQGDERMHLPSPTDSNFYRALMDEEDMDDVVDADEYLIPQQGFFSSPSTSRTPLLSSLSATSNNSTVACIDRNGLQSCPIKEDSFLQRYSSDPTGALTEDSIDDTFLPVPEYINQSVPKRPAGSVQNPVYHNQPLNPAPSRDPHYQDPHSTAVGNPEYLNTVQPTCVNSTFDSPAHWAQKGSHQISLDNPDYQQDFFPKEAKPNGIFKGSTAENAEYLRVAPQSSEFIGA

Structure (SMILES)	IC50 (EGFR wild type) [nM]	GI50 (PC-9; Homo sapiens, PC-9, 72 h) [nM]	IC50 (EGFR L858R/T790M) [nM]	GI50 [1, 3] [nM]	GI50 [1, 4] [nM]	GI50 [1, 5] [nM]	GI50 [1, 6] [nM]	GI50 [1, 7] [nM]	GI50 [1, 8] [nM]	GI50 [1, 9] [nM]	IC50 [2] [nM]	IC50 (EGFR (d746-750 C797S)) [nM]	GI50 (A-431) [nM]	IC50 (EGFR[T790M/C797S/L858R]) [nM]	IC50 (EGFR L858R) [nM]	IC50 (EGFR Exon19Del) [nM]	IC50 (EGFR (C797S L858R)) [nM]	IC50 (EGFR Exon19Del/T790M) [nM]	GI50 (PC-9) [nM]	GI50 [1, 10] [nM]	also measured
COCCN(C)c1ccc2nc3n(c2c1)C12CCC(CN(CCOc4c(cnn4C)-c4cc(cn(C)c4=O)C(=O)N3)C1)C2 (single isomer, unassigned) [Example A90A]	> 5000		> 5000								> 5000	749	4270	> 5000	> 5000	1710	> 5000	> 5000	2100	128	GI50 [1, 11]: 393 nM; GI50 [1, 12]: 540 nM; GI50 [1, 13]: 249 nM; GI50 [1, 14]: 721 nM; GI50 [1, 15]: 977 nM; GI50 [1, 16]: 321 nM
CN1CCC2(CCN(c3ccc4nc5n(c4c3)C34CCC(CN(CCOc6c(cnn6C)-c6cc(cn(C)c6=O)C(=O)N5)C3)C4)CC2)C1 (single isomer, unassigned) [Example A82B]	0.92		1.8								2	0.87	203	1.7	0.87	1.1	1.4	2.1	2.4	0.77	GI50 [1, 11]: 0.86 nM; GI50 [1, 12]: 0.78 nM; GI50 [1, 13]: 0.68 nM; GI50 [1, 14]: 1 nM; GI50 [1, 15]: 0.82 nM; GI50 [1, 16]: 0.9 nM

Now from value to molecule, other results behind:

IC50 (EGFR wild type) [nM]	GI50 (PC-9; Homo sapiens, PC-9, 72 h) [nM]	IC50 (EGFR L858R/T790M) [nM]	GI50 [1, 3] [nM]	GI50 [1, 4] [nM]	GI50 [1, 5] [nM]	GI50 [1, 6] [nM]	GI50 [1, 7] [nM]	GI50 [1, 8] [nM]	GI50 [1, 9] [nM]	IC50 [2] [nM]	IC50 (EGFR (d746-750 C797S)) [nM]	GI50 (A-431) [nM]	IC50 (EGFR[T790M/C797S/L858R]) [nM]	IC50 (EGFR L858R) [nM]	IC50 (EGFR Exon19Del) [nM]	IC50 (EGFR (C797S L858R)) [nM]	IC50 (EGFR Exon19Del/T790M) [nM]	GI50 (PC-9) [nM]	GI50 [1, 10] [nM]	Structure (SMILES)	also measured
1520	7.6	14	1.9	4.7	5.2	6.9	5.4	16	8.4	5.1	2.8	290	8.2	74	5.9	30	5			C[C@@H]1CCCOc2c(cnn2C)-c2cc(cn(C)c2=O)C(=O)Nc2nc3ccc(N4CCN(C5COC5)CC4)cc3n2C1 [Example A39]	
> 5000	115	195	12	31	79	61	37	307	59	3.4	12	2910	32	414	18	167	5.7			C[C@@H]1CCCOc2c(cnn2C)-c2cc(cn(C)c2=O)C(=O)Nc2nc3ccc4c(c3n2C1)CCNC4 [Example A102, (11R)-5,11,30-Trimethyl-7-oxa-4,5,13,18,24,26,30-heptaazahexacyclo[26.3.1.0^{2,6}.0^{13,25}.0^{14,23}.0^{15,20}]dotriaconta-1(32),2(6),3,14,20,22,24,28-octaene-27,31-dione]	
281	4.3	6.5	0.7	3.3	3.2	3.8	2.5	10	5.5	1.2	1.7	166	2.3	40	3.4	13	1.4			C[C@@H]1CCCOc2c(cnn2C)-c2cc(cn(C)c2=O)C(=O)Nc2nc3ccc(N4CC(N(C)C)C4)cc3n2C1 [Example A37]	
